Numbers after ± are expanded uncertainties.
Experiments:
[1] = 298.15 K; 101.33 kPa; Liquid; Vibrating tube method
[2] = refractive index (Na D-line) (dimensionless); conditions: 298.15 K; 101.33 kPa; Liquid; Standard Abbe refractometry

| Compound | mass density [1] [kg/m3] | refractive index [2] |
| --- | --- | --- |
| C=CC(C)(O)CCC=C(C)C (stereo not given) [3,7-dimethyl-1,6-octadien-3-ol] | 856.83 ± 1.4 | 1.45961 ± 0.00068 |
| CCCCCCCCCCn1cc[n+](C)c1.O=S(=O)([N-]S(=O)(=O)C(F)(F)F)C(F)(F)F | 1278.4 ± 0.23 | 1.43584 ± 0.00033 |
| CCCCCC[n+]1ccn(C)c1.O=S(=O)([N-]S(=O)(=O)C(F)(F)F)C(F)(F)F | 1372.09 ± 0.28 | 1.42879 ± 0.00033 |
| C=C(C)[C@H]1CC=C(C)CC1 [(R)-1-methyl-4-(1-methylethenyl)cyclohexene] | 838.68 ± 1.4 | 1.47081 ± 0.00068 |
| CCn1cc[n+](C)c1.O=S(=O)([N-]S(=O)(=O)C(F)(F)F)C(F)(F)F | 1518.91 ± 0.36 | 1.42298 ± 0.00068 |
